From paper PMC12372887, “Mechanism and cellular actions of the potent AMPK inhibitor BAY-3827” (Science Advances, 2025)

Key:
Experiment in all cases: Kinase panel (140 human kinases)
Assay type in all cases: biochemical
[1] = system: AMPK
Method: (§1) BAY-3827 and BAY-974 were assayed against a 140-human kinase panel at 0.1 μM and at 1 μM (BAY-3827) concentration in a [γ-^33P] ATP–based radioactive filter binding assay ([31], [65]) setup in duplicates with reported mean remaining kinase percentage activity alongside SD (table S1). Assays were performed at either 5, 20, or 50 μM ATP to be at or below the Michaelis constant for ATP for each enzyme and conducted by the services offered by the International Centre for Kinase Profiling at MRC Protein Phosphorylation and Ubiquitylation Unit, University of Dundee (https://www.kinase-screen.mrc.ac.uk/services/premier-screen).

[2] = molecular target: Aurora A (Homo sapiens, UniProt O14965)
Method: as §1

[3] = molecular target: CK1δ (Homo sapiens, UniProt P48730)
Method: as §1

[4] = molecular target: DDR2 (Homo sapiens, UniProt Q16832)
Method: as §1

[5] = molecular target: GSK3b (Homo sapiens, UniProt P49841)
Method: as §1

[6] = molecular target: HER4 (Homo sapiens, UniProt Q15303)
Method: as §1

[7] = molecular target: HIPK3 (Homo sapiens, UniProt Q9H422)
Method: as §1

[8] = molecular target: IGF-1R (Homo sapiens, UniProt P08069)
Method: as §1

[9] = molecular target: T1, IRAK4 (Homo sapiens, UniProt Q9NWZ3)
T1 sequence (Q9NWZ3 1-460): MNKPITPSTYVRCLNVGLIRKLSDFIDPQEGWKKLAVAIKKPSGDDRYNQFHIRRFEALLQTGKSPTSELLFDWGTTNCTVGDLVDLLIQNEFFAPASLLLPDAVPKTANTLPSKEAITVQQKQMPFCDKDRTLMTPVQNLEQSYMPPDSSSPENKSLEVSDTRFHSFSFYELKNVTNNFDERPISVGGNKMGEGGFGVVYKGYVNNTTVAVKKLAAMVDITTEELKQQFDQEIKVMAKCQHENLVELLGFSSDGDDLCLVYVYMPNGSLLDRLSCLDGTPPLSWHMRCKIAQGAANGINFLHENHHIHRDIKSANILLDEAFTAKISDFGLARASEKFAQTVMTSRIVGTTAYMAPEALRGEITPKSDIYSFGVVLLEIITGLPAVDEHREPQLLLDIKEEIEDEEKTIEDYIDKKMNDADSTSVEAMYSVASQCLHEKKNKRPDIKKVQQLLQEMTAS
Method: as §1

[10] = molecular target: JNK2 (Homo sapiens, UniProt P45984)
Method: as §1

[11] = molecular target: Lck (Homo sapiens, UniProt P06239)
Method: as §1

[12] = molecular target: MAP4K3 (Homo sapiens, UniProt Q8IVH8)
Method: as §1

[13] = molecular target: MAP4K5 (Homo sapiens, UniProt Q9Y4K4)
Method: as §1

[14] = molecular target: MARK2 (Homo sapiens, UniProt Q7KZI7)
Chain of MARK2 (Q7KZI7 whole entry): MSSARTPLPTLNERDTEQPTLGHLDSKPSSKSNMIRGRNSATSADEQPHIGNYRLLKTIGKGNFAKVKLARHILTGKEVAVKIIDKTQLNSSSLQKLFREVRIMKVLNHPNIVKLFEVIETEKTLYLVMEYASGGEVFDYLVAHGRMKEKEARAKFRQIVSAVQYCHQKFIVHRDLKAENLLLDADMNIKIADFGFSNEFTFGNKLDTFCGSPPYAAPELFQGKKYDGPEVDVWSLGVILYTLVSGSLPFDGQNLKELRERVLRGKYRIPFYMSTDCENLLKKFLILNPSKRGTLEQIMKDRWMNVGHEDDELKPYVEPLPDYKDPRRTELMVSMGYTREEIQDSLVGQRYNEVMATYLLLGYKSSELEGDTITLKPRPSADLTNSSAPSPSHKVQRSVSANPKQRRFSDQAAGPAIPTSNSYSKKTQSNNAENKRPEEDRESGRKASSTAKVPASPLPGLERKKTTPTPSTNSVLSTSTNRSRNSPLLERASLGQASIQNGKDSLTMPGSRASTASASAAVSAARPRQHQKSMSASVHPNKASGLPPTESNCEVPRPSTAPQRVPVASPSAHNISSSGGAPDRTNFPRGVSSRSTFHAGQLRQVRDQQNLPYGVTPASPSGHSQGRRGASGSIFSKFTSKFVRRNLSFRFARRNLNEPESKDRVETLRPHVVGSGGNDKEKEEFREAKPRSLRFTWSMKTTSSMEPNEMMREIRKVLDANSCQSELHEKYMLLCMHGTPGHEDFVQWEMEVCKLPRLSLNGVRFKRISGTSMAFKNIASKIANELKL
Method: as §1

[15] = molecular target: MEKK1 (Homo sapiens, UniProt Q13233)
Chain of MEKK1 (Q13233 whole entry): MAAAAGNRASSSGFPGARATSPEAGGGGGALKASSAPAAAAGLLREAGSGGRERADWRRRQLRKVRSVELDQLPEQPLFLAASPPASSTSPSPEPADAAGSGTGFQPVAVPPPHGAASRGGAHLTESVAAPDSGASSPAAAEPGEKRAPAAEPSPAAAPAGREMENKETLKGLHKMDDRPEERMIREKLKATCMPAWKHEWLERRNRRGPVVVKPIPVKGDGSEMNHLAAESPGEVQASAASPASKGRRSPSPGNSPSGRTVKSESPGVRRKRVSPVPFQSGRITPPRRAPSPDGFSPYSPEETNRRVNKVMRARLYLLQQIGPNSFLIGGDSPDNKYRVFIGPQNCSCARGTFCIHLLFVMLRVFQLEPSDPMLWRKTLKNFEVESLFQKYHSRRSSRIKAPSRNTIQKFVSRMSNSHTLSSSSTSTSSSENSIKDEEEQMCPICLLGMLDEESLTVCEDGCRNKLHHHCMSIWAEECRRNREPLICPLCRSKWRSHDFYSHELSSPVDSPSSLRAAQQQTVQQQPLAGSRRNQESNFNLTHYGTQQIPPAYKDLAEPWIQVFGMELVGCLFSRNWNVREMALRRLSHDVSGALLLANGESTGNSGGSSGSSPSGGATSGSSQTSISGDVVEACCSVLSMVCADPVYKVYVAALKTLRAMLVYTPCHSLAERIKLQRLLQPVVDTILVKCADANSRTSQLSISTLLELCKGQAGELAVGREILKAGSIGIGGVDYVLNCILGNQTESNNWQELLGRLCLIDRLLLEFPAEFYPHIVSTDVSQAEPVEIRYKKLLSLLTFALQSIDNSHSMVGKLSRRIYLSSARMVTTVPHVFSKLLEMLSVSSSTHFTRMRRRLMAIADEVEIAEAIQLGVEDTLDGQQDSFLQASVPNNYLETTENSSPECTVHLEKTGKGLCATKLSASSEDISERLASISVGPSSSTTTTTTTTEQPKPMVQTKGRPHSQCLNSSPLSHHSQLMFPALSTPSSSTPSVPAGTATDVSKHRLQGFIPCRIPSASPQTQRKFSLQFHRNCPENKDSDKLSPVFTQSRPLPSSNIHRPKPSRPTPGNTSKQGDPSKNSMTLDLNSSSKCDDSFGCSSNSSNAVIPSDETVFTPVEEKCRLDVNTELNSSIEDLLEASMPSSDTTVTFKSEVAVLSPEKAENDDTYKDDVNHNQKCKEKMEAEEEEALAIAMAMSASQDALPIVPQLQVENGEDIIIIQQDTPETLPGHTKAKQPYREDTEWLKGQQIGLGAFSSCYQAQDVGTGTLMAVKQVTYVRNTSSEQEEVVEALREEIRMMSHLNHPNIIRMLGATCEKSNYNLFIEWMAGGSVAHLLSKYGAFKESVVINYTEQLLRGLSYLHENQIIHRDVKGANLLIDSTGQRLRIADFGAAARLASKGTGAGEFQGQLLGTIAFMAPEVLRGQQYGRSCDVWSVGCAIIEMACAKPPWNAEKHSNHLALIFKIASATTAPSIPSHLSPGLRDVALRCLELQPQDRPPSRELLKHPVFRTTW
Method: as §1

[16] = molecular target: MELK (Homo sapiens, UniProt Q14680)
Chain of MELK (Q14680 whole entry): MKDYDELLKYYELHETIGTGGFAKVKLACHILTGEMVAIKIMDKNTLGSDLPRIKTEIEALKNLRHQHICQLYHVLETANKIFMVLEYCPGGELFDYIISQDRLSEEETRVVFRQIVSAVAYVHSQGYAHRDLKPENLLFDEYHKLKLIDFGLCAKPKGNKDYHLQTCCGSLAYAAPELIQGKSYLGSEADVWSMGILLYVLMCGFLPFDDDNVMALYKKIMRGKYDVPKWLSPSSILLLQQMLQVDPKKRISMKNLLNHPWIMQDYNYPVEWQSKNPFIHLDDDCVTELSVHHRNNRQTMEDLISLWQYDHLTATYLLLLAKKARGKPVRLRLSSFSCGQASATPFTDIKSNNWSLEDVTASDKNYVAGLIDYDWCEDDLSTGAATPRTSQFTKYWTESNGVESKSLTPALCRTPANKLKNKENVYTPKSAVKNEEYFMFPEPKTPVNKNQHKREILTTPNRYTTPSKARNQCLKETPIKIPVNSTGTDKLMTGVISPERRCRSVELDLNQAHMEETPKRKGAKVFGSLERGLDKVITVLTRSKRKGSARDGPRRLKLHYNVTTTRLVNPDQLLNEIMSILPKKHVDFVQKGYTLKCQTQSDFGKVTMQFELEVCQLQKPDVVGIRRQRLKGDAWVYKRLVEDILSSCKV
Method: as §1

[17] = molecular target: MLK1 (Homo sapiens, UniProt P80192)
Method: as §1

[18] = molecular target: MSK1 (Homo sapiens, UniProt O75582)
Chain of MSK1 (O75582 whole entry): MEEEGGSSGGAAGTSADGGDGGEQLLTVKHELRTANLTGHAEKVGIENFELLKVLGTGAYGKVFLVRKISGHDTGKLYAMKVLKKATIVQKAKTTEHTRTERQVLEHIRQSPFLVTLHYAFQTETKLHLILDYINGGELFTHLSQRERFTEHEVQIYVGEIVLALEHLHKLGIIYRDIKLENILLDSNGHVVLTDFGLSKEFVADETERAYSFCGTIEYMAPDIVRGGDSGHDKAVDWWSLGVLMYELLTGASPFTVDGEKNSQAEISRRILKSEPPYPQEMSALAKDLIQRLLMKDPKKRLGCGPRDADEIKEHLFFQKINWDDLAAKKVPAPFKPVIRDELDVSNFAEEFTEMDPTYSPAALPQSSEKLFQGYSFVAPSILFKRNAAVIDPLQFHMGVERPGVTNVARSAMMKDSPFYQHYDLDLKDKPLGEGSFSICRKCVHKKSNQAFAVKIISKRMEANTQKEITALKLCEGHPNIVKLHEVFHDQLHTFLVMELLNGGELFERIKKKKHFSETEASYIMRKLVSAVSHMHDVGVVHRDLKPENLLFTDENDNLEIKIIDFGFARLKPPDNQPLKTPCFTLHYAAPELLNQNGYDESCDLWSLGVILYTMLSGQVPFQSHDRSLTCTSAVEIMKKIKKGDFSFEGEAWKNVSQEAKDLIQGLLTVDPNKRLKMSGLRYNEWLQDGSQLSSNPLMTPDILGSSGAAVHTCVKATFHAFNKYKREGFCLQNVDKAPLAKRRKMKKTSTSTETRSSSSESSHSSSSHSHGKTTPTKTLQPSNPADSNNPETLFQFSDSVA
Method: as §1

[19] = molecular target: MST3 (Homo sapiens, UniProt Q9Y6E0)
Method: as §1

[20] = molecular target: OSR1 (Homo sapiens, UniProt O95747)
Method: as §1

[21] = molecular target: PAK4 (Homo sapiens, UniProt O96013)
Method: as §1

[22] = molecular target: PAK5 (Homo sapiens, UniProt Q9P286)
Method: as §1

[23] = molecular target: PKBb (Homo sapiens, UniProt P31751)
Chain of PKBb (P31751 whole entry): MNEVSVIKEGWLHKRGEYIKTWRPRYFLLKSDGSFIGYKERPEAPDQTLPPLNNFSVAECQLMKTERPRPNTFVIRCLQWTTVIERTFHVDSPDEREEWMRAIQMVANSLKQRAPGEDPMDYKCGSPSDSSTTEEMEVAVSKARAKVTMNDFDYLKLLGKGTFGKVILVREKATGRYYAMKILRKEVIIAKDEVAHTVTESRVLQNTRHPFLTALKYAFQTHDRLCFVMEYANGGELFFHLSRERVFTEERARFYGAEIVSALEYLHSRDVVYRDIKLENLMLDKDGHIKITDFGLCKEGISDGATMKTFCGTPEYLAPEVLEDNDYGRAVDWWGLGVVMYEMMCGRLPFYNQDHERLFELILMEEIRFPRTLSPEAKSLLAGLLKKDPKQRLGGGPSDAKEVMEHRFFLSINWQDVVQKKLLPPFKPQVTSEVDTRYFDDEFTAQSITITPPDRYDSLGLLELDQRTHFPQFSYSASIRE
Method: as §1

[24] = molecular target: PKCz (Homo sapiens, UniProt Q05513)
Method: as §1

[25] = molecular target: PKD1 (Homo sapiens, UniProt Q15139)
Method: as §1

[26] = molecular target: SGK1 (Homo sapiens, UniProt O00141)
Method: as §1

[27] = molecular target: TAO1 (Homo sapiens, UniProt Q7L7X3)
Method: as §1

[28] = molecular target: TLK1 (Homo sapiens, UniProt Q9UKI8)
Method: as §1

[29] = molecular target: TSSK1 (Homo sapiens, UniProt Q9BXA7)
Method: as §1

[30] = molecular target: ULK2 (Homo sapiens, UniProt Q8IYT8)
Method: as §1

[31] = molecular target: ZAP70 (Homo sapiens, UniProt P43403)
Method: as §1

[32] = molecular target: p38a MAPK (Homo sapiens, UniProt Q16539)
Chain of p38a MAPK (Q16539 whole entry): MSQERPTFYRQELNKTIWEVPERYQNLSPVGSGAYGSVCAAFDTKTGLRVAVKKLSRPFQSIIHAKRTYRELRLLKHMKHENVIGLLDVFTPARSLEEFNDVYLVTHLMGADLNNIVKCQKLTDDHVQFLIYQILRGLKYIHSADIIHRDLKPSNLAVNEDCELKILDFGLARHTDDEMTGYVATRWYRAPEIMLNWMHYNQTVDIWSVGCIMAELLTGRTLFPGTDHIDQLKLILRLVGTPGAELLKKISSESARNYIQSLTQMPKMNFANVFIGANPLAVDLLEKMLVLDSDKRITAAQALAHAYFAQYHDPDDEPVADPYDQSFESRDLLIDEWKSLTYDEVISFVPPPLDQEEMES
Method: as §1

[33] = molecular target: p38b MAPK (Homo sapiens, UniProt Q15759)
Method: as §1

[34] = molecular target: p38d MAPK (Homo sapiens, UniProt O15264)
Method: as §1

[35] = molecular target: p38g MAPK (Homo sapiens, UniProt P53778)
Chain of p38g MAPK (P53778 whole entry): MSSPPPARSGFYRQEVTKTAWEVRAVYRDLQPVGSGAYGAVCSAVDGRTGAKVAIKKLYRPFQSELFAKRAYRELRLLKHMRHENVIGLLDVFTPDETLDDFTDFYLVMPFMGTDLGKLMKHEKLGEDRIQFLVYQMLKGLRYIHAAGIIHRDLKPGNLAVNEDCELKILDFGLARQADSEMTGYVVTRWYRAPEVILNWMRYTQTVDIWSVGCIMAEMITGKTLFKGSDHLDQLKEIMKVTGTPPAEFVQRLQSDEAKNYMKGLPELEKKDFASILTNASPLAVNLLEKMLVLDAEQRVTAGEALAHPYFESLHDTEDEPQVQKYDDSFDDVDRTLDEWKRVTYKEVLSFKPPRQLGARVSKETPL
Method: as §1

[36] = 1 μM, cross-referenced with screen data of ref 37, read-out: activity remaining after treatment

Row | Compound | inhibition of kinase ([1]; 0.1 μM) | remaining activity at 0.1 µM [2] [%] | remaining activity at 0.1 µM [3] [%] | remaining activity at 0.1 µM [4] [%] | remaining activity at 0.1 µM [5] [%] | remaining activity at 0.1 µM [6] [%] | remaining activity at 0.1 µM [7] [%] | remaining activity at 0.1 µM [8] [%] | remaining activity at 0.1 µM [9] [%] | remaining activity at 0.1 µM [10] [%] | remaining activity at 0.1 µM [11] [%] | remaining activity at 0.1 µM [12] [%] | remaining activity at 0.1 µM [13] [%] | remaining activity at 0.1 µM [14] [%] | remaining activity at 0.1 µM [15] [%] | remaining activity at 0.1 µM [16] [%] | remaining activity at 0.1 µM [17] [%] | remaining activity at 0.1 µM [18] [%] | remaining activity at 0.1 µM [19] [%] | remaining activity at 0.1 µM [20] [%] | other results
1 | CCc1ccccc1C(=O)Nc1n[nH]c2c(C)c(F)c(C3C(C#N)=C(C)N(C)C(C)=C3C#N)cc12 [BAY-3827, N-[5-(3,5-dicyano-1,2,6-trimethyl-4H-pyridin-4-yl)-6-fluoro-7-methyl-1H-indazol-3-yl]-2-ethylbenzamide] | > 90% | 90 | 103 | 80 | 74 | 135 | 77 | 67 | 111 | 105 | 93 | 82 | 97 | 77 | 97 | 81 | 89 | 56 | ≤ 50 | 111 | activity remaining after treatment ([1]; 1 μM, cross-referenced with screen data of ref 37): ≤ 50%; remaining activity at 1 µM [9, 36]: ≥ 99%; remaining activity at 1 µM [16, 36]: ≤ 50%; remaining activity at 1 µM [18, 36]: ≤ 50%; remaining activity at 0.1 µM [21]: 80%; remaining activity at 0.1 µM [22]: 100%; remaining activity at 0.1 µM [23]: 93%; remaining activity at 0.1 µM [24]: 112%; remaining activity at 0.1 µM [25]: 100%; remaining activity at 0.1 µM [26]: 97%; remaining activity at 0.1 µM [27]: 94%; remaining activity at 0.1 µM [28]: 118%; remaining activity at 0.1 µM [29]: 88%; remaining activity at 0.1 µM [30]: 96%; remaining activity at 0.1 µM [31]: 96%; remaining activity at 0.1 µM [32]: 97%; remaining activity at 0.1 µM [33]: 55%; remaining activity at 0.1 µM [34]: 99%; remaining activity at 0.1 µM [35]: 90%
2 | CC1=C(C#N)C(c2ccc3c(c2)c(NC(=O)c2ccccc2C)nn3C)C(C#N)=C(C)N1 [BAY-974, N-[5-(3,5-dicyano-2,6-dimethyl-1,4-dihydropyridin-4-yl)-1-methylindazol-3-yl]-2-methylbenzamide] | almost no effect | 79 | 116 | 89 | 93 | 93 | 99 | 147 | 92 | 104 | 58 | 73 | 89 | 87 | 99 | 90 | 90 | 100 | 89 | 109 | Kinase activity remaining (%) ([1]; 0.1 μM): 98%; remaining activity at 0.1 µM [21]: 96%; remaining activity at 0.1 µM [22]: 82%; remaining activity at 0.1 µM [23]: 99%; remaining activity at 0.1 µM [24]: 103%; remaining activity at 0.1 µM [25]: 84%; remaining activity at 0.1 µM [26]: 127%; remaining activity at 0.1 µM [27]: 88%; remaining activity at 0.1 µM [28]: 100%; remaining activity at 0.1 µM [29]: 55%; remaining activity at 0.1 µM [30]: 60%; remaining activity at 0.1 µM [31]: 94%; remaining activity at 0.1 µM [32]: 108%; remaining activity at 0.1 µM [33]: 81%; remaining activity at 0.1 µM [34]: 108%; remaining activity at 0.1 µM [35]: 95%
